Results reported in patent US20230056057A1, “HERBICIDE CO[…] MONOETHANOLAMINE SALT AND A PPO-INHIBITOR” (MONSANTO TECHNOLOGY LLC, priority 2020, published 2023).
Where a name gives a salt, the structure may show the parent alone.

crystallization at higher loadings (higher loadings)	tendency to salt out (at higher concentrations, compared to the dicamba DGA salt)	SMILES
crystallizes out	–	COc1c(Cl)ccc(Cl)c1C(=O)O.NCCOCCO [dicamba DGA salt, diglycolamine (DGA) salt of dicamba]
–	less tendency to salt out	COc1c(Cl)ccc(Cl)c1C(=O)O [dicamba EA salt, dicamba monoethanolamine salt]
